24 compounds from patent publication US10865216B2, “Tricyclic Gyrase inhibitors” (MERCK SHARP & DOHME CORP., priority 2012, dated 2020) can be followed below.

In one test the test system is E. coli ATCC 25922. Nature of the test: MIC, E. coli ATCC 25922. The following applies: for MIC: Escherichia coli. Type of test: cell-based.
For another test, the system named is S. aureus ATCC 13709. Nature of the test: MIC, S. aureus ATCC 13709. The following applies: for MIC: Staphylococcus aureus. Type of test: cell-based.
Where [1] appears, read: ATCC25922, E. coli, Alamar Blue read after overnight incubation at 35° C., read-out: MIC Ec.
The mark [2] stands for this setting: ATCC13709, S. aureus, Alamar Blue read after overnight incubation at 35° C., read-out: MIC Sa.
The mark [3] stands for this setting: E. coli, Alamar Blue read after overnight incubation at 35° C.
[4] abbreviates: S. aureus, Alamar Blue read after overnight incubation at 35° C.

Values after ≈ are worked out from the molar mass of the structure shown. Read-outs that look alike come from different tables or passages of the source.

With `CNc1cccc2c1[nH]c1nc(Sc3cnc4cccnc4c3)nc(N3CCC(C)(N)C3)c12` (stereo not drawn) [Compound 1.59], the MIC with E. coli ATCC 25922 (setting [1]) came to 4 µg/mL (≈ 8.76 µM); in the test with S. aureus ATCC 13709 (setting [2]), 1 µg/mL (≈ 2.19 µM).

For `CNc1cccc2c1[nH]c1nc(Oc3cncnc3)cc(N3CCN(CCN)CC3)c12` [Compound 3.56], the MIC with E. coli ATCC 25922 (setting [1]) and in the test with S. aureus ATCC 13709 (setting [2]) was > 64 µg/mL throughout.

As to `CNc1cc(F)cc2c1[nH]c1nc(Oc3cnc(C)nc3)nc(N3CCC(C)(N)CC3)c12` [Compound 4.135], the “MIC Ec” value in the test on E. coli ATCC 25922 (setting [3]) amounted to 1 µg/mL (≈ 2.29 µM). In addition, in the test on S. aureus ATCC 13709 (setting [4]), the “MIC Sa” value is ≤0.5 µg/mL.

Regarding `CNc1cc(F)cc2c1[nH]c1nc(Oc3cnn4ccnc4c3)nc(N3C[C@H]4C[C@@H]3C[C@H]4N)c12` [Compound 10.62], the MIC Ec against E. coli ATCC 25922 (Table 18, Ec) was ≤ 0.5 µg/mL. Further, the MIC Sa in the test on S. aureus ATCC 13709 (Table 18, Sa) is ≤ 0.5 µg/mL.

As for `CNc1cc(F)cc2c1[nH]c1nc(Oc3ccc(C#N)nc3)nc(N3CC4CC(N)C4C3)c12` (stereo not drawn) [Compound 4.332], the “MIC Ec” value in the test with E. coli ATCC 25922 (setting [3]) was ≤0.5 µg/mL. Besides, in the test on S. aureus ATCC 13709 (setting [4]), the “MIC Sa” value was ≤0.5 µg/mL.

`NC1CCN(c2nc(Sc3cnc4nccnc4c3)nc3[nH]c4ccccc4c23)C1` (stereo not drawn) [Compound 1.06]: in the test with E. coli ATCC 25922 (setting [3]), the “MIC Ec” value is >64 µg/mL. For the same compound, the “MIC Sa” value in the test with S. aureus ATCC 13709 (setting [4]) turned out to be 32 µg/mL (≈ 77.2 µM).

`CNc1cccc2c1[nH]c1nc(Oc3cncnc3)cc(N3C[C@@H](NC)C4(CC4)C3)c12` [Compound 3.46]: the results for the minimum inhibitory concentration (MIC) with E. coli ATCC 25922 (setting [1]) and in the test with S. aureus ATCC 13709 (setting [2]) were 4 µg/mL (≈ 9.63 µM) and 2 µg/mL (≈ 4.81 µM), respectively.

With `CNc1cc(F)cc2c1[nH]c1nc(Oc3cnc(N4CC(O)C4)nc3)nc(N3CC4C(N)C4C3)c12` (stereo not drawn) [Compound 4.298], the “MIC Ec” value in the test with E. coli ATCC 25922 (setting [3]) worked out at 2 µg/mL (≈ 4.19 µM). For the same compound, the “MIC Sa” value with S. aureus ATCC 13709 (setting [4]) is ≤0.5 µg/mL.

Turning to `CNc1ncnc2c1[nH]c1nc(Oc3cnc(C)nc3)nc(N3CCC(CN)C3)c12` (stereo not drawn) [Compound 7.12], the MIC with E. coli ATCC 25922 (setting [1]) and with S. aureus ATCC 13709 (setting [2]) was > 64 µg/mL in each case.

As for `CNc1cccc2c1[nH]c1nc(Sc3cnc4cccnc4c3)nc(N3CCN(c4cnccn4)CC3)c12` [Compound 1.54], the MIC was > 64 µg/mL in the test on E. coli ATCC 25922 (setting [1]) and ≤ 0.5 µg/mL in the test with S. aureus ATCC 13709 (setting [2]).

For the compound `CNc1cc(F)cc2c1[nH]c1nc(Oc3cncc(C#N)c3)nc(N3CC(N)C4(CC4)C3)c12` (stereo not drawn) [Compound 4.051], the “MIC Ec” value in the test with E. coli ATCC 25922 (setting [3]) was 2 µg/mL (≈ 4.5 µM). The “MIC Sa” value in the test with S. aureus ATCC 13709 (setting [4]) is ≤0.5 µg/mL.

With `CNc1cccc2c1[nH]c1nc(Oc3cnc4ccoc4c3)cc(N3CC4C(N)C4C3)c12` (stereo not drawn) [Compound 3.23], the minimal inhibitory concentration (MIC) with E. coli ATCC 25922 (setting [1]) was 2 µg/mL (≈ 4.69 µM); in the test with S. aureus ATCC 13709 (setting [2]), ≤ 0.5 µg/mL.

With `CNc1cccc2c1[nH]c1nc(Oc3cncnc3)cc(N3CCC[C@@H](N)C3)c12` [Compound 3.16], the MIC in the test on E. coli ATCC 25922 (setting [1]) and in the test with S. aureus ATCC 13709 (setting [2]) was 4 µg/mL (≈ 10.3 µM) throughout.

As to `CCC1(CN)CCN(c2nc(Oc3cnc(C)nc3)nc3[nH]c4c(NC)cc(F)cc4c23)C1` (stereo not drawn), the MIC was ≤ 0.5 µg/mL in the test with E. coli ATCC 25922 (ATCC25922, Table 16, new R4 substituents, EC8 not defined, read-out: EC8 MIC) and ≤ 0.5 µg/mL in the test on S. aureus ATCC 13709 (ATCC13709, Table 16, new R4 substituents, read-out: SA MIC).

For the compound `CNc1cc(F)cc2c1[nH]c1nc(Oc3cnc(C)nc3)nc(N3CCC(N)(CCC#N)C3)c12` (stereo not drawn) [Compound 10.75], the MIC Ec with E. coli ATCC 25922 (Table 18, Ec) worked out at 1 µg/mL (≈ 2.17 µM). The MIC Sa with S. aureus ATCC 13709 (Table 18, Sa) was ≤ 0.5 µg/mL.

Regarding `CNc1cc(F)cc2c1[nH]c1nc(Oc3cnc(NC4CC4)nc3)nc(N3CC[C@@H](N)C3)c12` [Compound 4.222], the “MIC Ec” value against E. coli ATCC 25922 (setting [3]) was ≤0.5 µg/mL. Also, the “MIC Sa” value with S. aureus ATCC 13709 (setting [4]) is ≤0.5 µg/mL.

As to `CNc1cc(F)cc2c1[nH]c1nc(Oc3cnc(N)nc3)nc(N3CC4CCC(N)C4C3)c12` (stereo not drawn) [Compound 4.189], in the test with E. coli ATCC 25922 (setting [3]), the “MIC Ec” value turned out to be 2 µg/mL (≈ 4.45 µM). Besides, in the test on S. aureus ATCC 13709 (setting [4]), the “MIC Sa” value is ≤0.5 µg/mL.

For the compound `CNc1cc(F)cc2c1[nH]c1nc(Sc3cnc4cccnc4c3)nc(N3CC4C(N)C4C3)c12` (stereo not drawn) [Compound 1.51], the MIC with E. coli ATCC 25922 (setting [1]) and with S. aureus ATCC 13709 (setting [2]) was ≤ 0.5 µg/mL throughout.

Regarding `CNc1cc(F)cc2c1[nH]c1nc(Oc3cncnc3)nc(N3CC(C)C(CN)C3)c12` (stereo not drawn) [Compound 4.023], the “MIC Ec” value with E. coli ATCC 25922 (setting [3]) is 1 µg/mL (≈ 2.37 µM). In the test on S. aureus ATCC 13709 (setting [4]), the “MIC Sa” value is ≤0.5 µg/mL.

Regarding `CNc1cc(F)cc2c1[nH]c1nc(Oc3cncc(F)c3)nc(N3CC(N)C4(CC4)C3)c12` (stereo not drawn) [Compound 4.056], the “MIC Ec” value with E. coli ATCC 25922 (setting [3]) was ≤0.5 µg/mL. In addition, in the test with S. aureus ATCC 13709 (setting [4]), the “MIC Sa” value is ≤0.5 µg/mL.

As to `CNc1cc(F)cc2c1[nH]c1nc(Oc3cncnc3)nc(N3CCC(C4(N)CC4)C3)c12` (stereo not drawn) [Compound 4.027], in the test on E. coli ATCC 25922 (setting [3]), the “MIC Ec” value turned out to be 1 µg/mL (≈ 2.3 µM). Moreover, the “MIC Sa” value with S. aureus ATCC 13709 (setting [4]) is ≤0.5 µg/mL.

For the compound `CNc1cc(F)cc2c1[nH]c1nc(Oc3cnc(SC)nc3)nc(N3CCC4(C[C@H]4N)C3)c12` (stereo partly drawn) [Compound 4.203], the “MIC Ec” value in the test on E. coli ATCC 25922 (setting [3]) is ≤0.5 µg/mL. Further, the “MIC Sa” value with S. aureus ATCC 13709 (setting [4]) is ≤0.5 µg/mL.

As to `CNc1cc(F)cc2c1[nH]c1nc(Oc3ccc4c(N)nc(C)nc4c3)nc(N3CC4C(N)C4C3)c12` (stereo not drawn) [Compound 4.288], in the test on E. coli ATCC 25922 (setting [3]), the “MIC Ec” value is >16 µg/mL. For the same compound, the “MIC Sa” value in the test with S. aureus ATCC 13709 (setting [4]) turned out to be 4 µg/mL (≈ 8.24 µM).

On to `CNc1cc(F)cc2c1[nH]c1nc(Oc3cnc4cccnc4c3)nc(N3CC4C(N)C4C3)c12` (stereo not drawn) [Compound 4.037], for which the “MIC Ec” value against E. coli ATCC 25922 (setting [3]) is ≤0.5 µg/mL. Besides, the “MIC Sa” value against S. aureus ATCC 13709 (setting [4]) was ≤0.5 µg/mL.

What is called MIC is the smallest concentration in the dilution series that meets the test's criterion for growth inhibition.
